Results taken from US10385041B2, “Terpene derivative-based PAR1 inhibitor, preparation method thereof, and use in treatment of thrombotic diseases” (SHANDONG UNIVERSITY, priority 2015, dated 2019).

Target: T1, PAR1 (Homo sapiens, UniProt P25116)
T1 sequence (P25116 22-425): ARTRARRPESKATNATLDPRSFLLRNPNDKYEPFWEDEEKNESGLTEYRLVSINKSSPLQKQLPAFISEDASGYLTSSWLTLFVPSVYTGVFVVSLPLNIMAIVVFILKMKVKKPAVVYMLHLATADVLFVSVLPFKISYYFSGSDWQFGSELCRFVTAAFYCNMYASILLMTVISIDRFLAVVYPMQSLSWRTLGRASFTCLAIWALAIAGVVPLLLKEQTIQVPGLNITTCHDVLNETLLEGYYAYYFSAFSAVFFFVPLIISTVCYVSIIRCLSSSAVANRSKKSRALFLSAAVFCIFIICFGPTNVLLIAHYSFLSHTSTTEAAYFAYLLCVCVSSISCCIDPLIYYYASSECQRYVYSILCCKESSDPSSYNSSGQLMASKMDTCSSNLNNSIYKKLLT
Assay: Calcium ion influx experiment (FLIPR), PAR1 inhibition activity, HEK293-Ga15-PAR1 cell strain, agonist haTRAP
Format: cell-based
Conditions: HEK293-Ga15-PAR1 cells; for IC50: calcium influx, agonist haTRAP 3 μM, 4-PL fit; for Slope: slope of 4-PL dosage-effect curve, haTRAP 3 μM
Method: Embodiment 6: Determination of Biological Activity (PAR1 Inhibition Activity) of the Compound
An HEK293-Ga15-PAR1 cell strain (HD Biosciences stable cell strain) was quickly taken out of a liquid nitrogen tank, and shaken continuously in a 37° C. water bath until it was completely melted. A cell suspension was quickly added into a pre-heated culture medium (90% DMEM+10% FBS+1× Pen/Strep), placed in a centrifuge and centrifuged at 1000 rpm for 10 minutes. A centrifugal tube was taken out, the supernatant was discarded, and the fresh pre-heated culture medium was added into the centrifugal tube, cells were resuspended, and the cell suspension was added into a culture dish and cultured at 37° C. with 5% of CO2.
When the cells reached 80-90% of the culture dish, the cells were gently washed with 0.05% of trypsin-EDTA, part of digestive juice was removed, then the cells were incubated for 2-3 min, the digestion was terminated with the new culture medium, the cells were gently blew with a gun head, and the cells were resuspended. In general, the passage was performed according to 1:4 to 1:8 every 2 to 3 days.
On the day before the experiment, 1× Matrigel (Brand: BD, Cat #: 356230) was added into a clean 384-well cell plate, incubated at 37° C. for 30 minutes, and then inverted and centrifuged at 500 rpm for 30 seconds to remove the coating solution.
The cell precipitate was digested and collected, resuspended in the culture medium to 3×10^5 cells/mL, added into the coated cell plate according to 50 μL per well and then incubated at 37° C. with 5% of CO2 overnight.
On the day of the experiment, the fresh experimental buffer solution and 0.5× Calcium 4 (Brand: Molecular Devices, Cat #: R8141) loading buffer solution were prepared.
The 30 mM DMSO stock solution was first diluted with DMSO to 10 mM, and then diluted 4 times from 10 mM for a total of 10 concentrations. Ten DMSO concentration gradients of the compound were added into the experimental buffer solution at a ratio of 1:20 to prepare a working solution of the compound (5 times the final reaction concentration). After that, the working solution of the compound was transferred into a 384-well compound plate according to the layout in the following drawing for later use.
Positive control: 40 mM DMSO stock solution of the reference compound SCH79797 was diluted to 2 mM;
Negative control: 5% of DMSO prepared from the experimental buffer solution
10 mM DMSO stock of the agonist haTRAP was diluted with the experimental buffer solution to 18 μM (6 times the final reaction concentration 3 μM), and then transferred into a 384-well compound plate, at least at 25 μl/well for later use.
The cell plate incubated overnight was taken out, the cell culture medium was removed by centrifugation at 300 rpm for 30 seconds, 20 μL of freshly prepared 0.5× Calcium 4 loading buffer solution was added into every well and then incubation was performed at 37° C. with 5% of CO2 for 1 hour.
The compound working solution was transferred from the compound plate to the cell plate at 5 μL/well according to the layout, then placed at 37° C. again and incubated with 5% of CO2 for 15 minutes.
The agonist was transferred from the 384-well compound plate (FLIPR) to the cell plate at 5 μL/well according to the program set by FLIPR, and the fluorescent signals in each well of the cell plate were simultaneously read.
The inhibition rate (%) of the compound in each well on the cell plate was calculated according to the fluorescence signal values of the positive control and the negative control on each cell plate. […] The inhibition rates and the corresponding concentrations of the compounds obtained by calculation were introduced into the relevant software for graphing, and the IC50 values of the compounds were calculated according to the 4-PL dosage-effect formula. The IC50 result of the reference compound is also one of standards for testing the quality of every experiment.

Row | Compound | IC50 [µM] | Slope
1 | C[C@@]1(C(=O)O)C(=O)CC[C@@]2(C)[C@H](/C=C/c3ccc(-c4cccc(F)c4)cn3)C3(CC[C@H]12)CO3 (stereo partly drawn) [Compound I-10] | 19.7 | 1.23
2 | COC(=O)[C@]1(C)[C@H](O)CC[C@@]2(C)[C@H](/C=C/c3ccc(-c4cccc(F)c4)cn3)C3(CC[C@@H]21)CO3 (stereo partly drawn) [Compound I-9] | 0.66 | 0.97
3 | C[C@]1(CO)[C@H]2CCC(CO)[C@@H](CCc3ccc(-c4cccc(C(F)(F)F)c4)cn3)[C@]2(C)CC[C@H]1O (stereo partly drawn) [Compound I-4] | 8.76 | 
4 | CC(C)c1ccc(Cn2ccc3c4c(N)nc(NC5CC5)nc4ccc32)cc1 [SCH79797, reference compound] | 8.71 | 0.95
5 | CO[C@@H]1CC[C@]2(C)[C@H](CCC3(CO3)[C@H]2/C=C/c2ccc(-c3cccc(F)c3)cn2)[C@]1(C)CO (stereo partly drawn) [Compound I-6] | 11 | 1.53
6 | C[C@]1(CO)[C@H]2CCC3(CO3)[C@@H](/C=C/c3ccc(-c4cccc(C(F)(F)F)c4)cn3)[C@]2(C)CC[C@H]1O (stereo partly drawn) [Compound I-2] | 7.95 | 
7 | C[C@@]12CC[C@@H](O)[C@@](C)(C(=O)O)[C@H]1CCC1(CO1)[C@H]2/C=C/c1ccc(-c2cccc(F)c2)cn1 (stereo partly drawn) [Compound I-8] | 31.6 | 1.97
8 | C[C@@]1(C=O)[C@H](O)CC[C@@]2(C)[C@H](/C=C/c3ccc(-c4cccc(F)c4)cn3)C3(CC[C@H]12)CO3 (stereo partly drawn) [Compound I-7] | 3.52 | 1.02
9 | C[C@]1(CO)[C@H]2CCC(CO)[C@@H](CCc3ccc(-c4cccc(F)c4)cn3)[C@]2(C)CC[C@H]1O (stereo partly drawn) [Compound I-3] | 8.91 | 
10 | C[C@]1(CO)[C@H]2CCC3(CO3)[C@@H](/C=C/c3ccc(-c4cccc(F)c4)cn3)[C@]2(C)CC[C@H]1O (stereo partly drawn) [Compound I-1] | 7.76 | 
11 | COC[C@@]1(C)[C@H]2CCC3(CO3)[C@@H](/C=C/c3ccc(-c4cccc(F)c4)cn3)[C@]2(C)CC[C@H]1O (stereo partly drawn) [Compound I-5] | 7.07 | 2.59
